Experiments:
MCF7 = experiment: Cytotoxicity against human MCF7 cells by flow cytometric analysis; assay type: functional, cell-based
[1] = Cytotoxicity against human KATO III cells by flow cytometric analysis; assay type: functional, cell-based, KATO III cell
[2] = target: RAC-alpha serine/threonine-protein kinase (Homo sapiens, UniProt P31749); experiment: Inhibition of Akt phosphorylation in human insulin-stimulated A549 cells incubated for 2 hrs prior to insulin-induction measured after 30 mins by ELISA; assay type: cell-based
A549 [3] = experiment: Cytotoxicity against human A549 cells by flow cytometric analysis; assay type: functional, cell-based
A549 [4] = experiment: Ratio of perifosine IC50 to compound IC50 for human A549 cells; assay type: functional
A549 [5] = experiment: Ratio of edelfosine IC50 to compound IC50 for human A549 cells; assay type: functional
A549 [6] = experiment: Ratio of miltefosine IC50 to compound IC50 for human A549 cells; assay type: functional

Chain of RAC-alpha serine/threonine-protein kinase (P31749 whole entry): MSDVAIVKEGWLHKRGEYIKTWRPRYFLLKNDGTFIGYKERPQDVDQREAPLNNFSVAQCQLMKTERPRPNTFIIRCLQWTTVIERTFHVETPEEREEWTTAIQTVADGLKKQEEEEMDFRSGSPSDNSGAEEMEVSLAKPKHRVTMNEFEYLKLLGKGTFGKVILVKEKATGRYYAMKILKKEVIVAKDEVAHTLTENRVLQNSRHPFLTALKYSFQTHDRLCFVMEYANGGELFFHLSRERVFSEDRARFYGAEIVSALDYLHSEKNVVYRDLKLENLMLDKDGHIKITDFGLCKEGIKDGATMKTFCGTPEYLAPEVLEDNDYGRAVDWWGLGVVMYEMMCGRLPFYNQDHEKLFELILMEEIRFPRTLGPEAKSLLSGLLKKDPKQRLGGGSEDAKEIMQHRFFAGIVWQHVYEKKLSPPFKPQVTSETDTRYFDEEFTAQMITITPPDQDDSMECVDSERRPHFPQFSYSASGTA

IC50 [2] [µM] | Compound | IC50 (MCF7) [µM] | IC50 [1] [µM] | IC50 (A549 [3]) [µM] | Ratio IC50 (A549 [4]) | Ratio IC50 (A549 [5]) | Ratio IC50 (A549 [6])
2 | CCCCCCCCCCCCCCCC[C@@]1(C(=O)OCC)CCC[C@H]1OP(=O)([O-])OCC[N+](C)(C)C (racemic) | 5.6 | 7.9 | 1.6 | 4 | 4 | 4
3.1 | CCCCCCCCCCCCC[C@@]1(C(=O)OCC)CCC[C@H]1OP(=O)([O-])OCC[N+](C)(C)C (racemic) | 11.2 | 14.1 | 2 | 4 | 4 | 4
6.2 | CCCCCCCCCCCCC[C@@]1(C(=O)OCC)CCC[C@@H]1OP(=O)([O-])OCC[N+](C)(C)C (racemic) | 4.5 | 9.7 | 2.7 | – | – | –
5 | CCCCCCCCCCCCCCCC[C@@]1(C(=O)OCC)CCC[C@@H]1OP(=O)([O-])OCC[N+](C)(C)C (racemic) | 11.1 | 10.6 | 3.6 | – | – | –
10.9 | CCCCCCCCCCCCCCCCCC[C@@]1(C(=O)OCC)CCC[C@H]1OP(=O)([O-])OCC[N+](C)(C)C (racemic) | 13.1 | 15 | 6.2 | – | – | –

Second part, the compound before the results:

Compound | IC50 [2] [µM] | IC50 (MCF7) [µM] | IC50 [1] [µM] | IC50 (A549 [3]) [µM] | Ratio IC50 (A549 [4]) | Ratio IC50 (A549 [5]) | Ratio IC50 (A549 [6])
CCCCCCCCCCCCCCCCCC[C@@]1(C(=O)OCC)CCC[C@@H]1OP(=O)([O-])OCC[N+](C)(C)C (racemic) | 3 | 7.5 | 9.9 | 4.6 | – | – | –
CCCCCCCCCCCCCCCCCCCC[C@@]1(C(=O)OCC)CCC[C@@H]1OP(=O)([O-])OCC[N+](C)(C)C (racemic) | 6.9 | 16 | 10.9 | 7.2 | – | – | –
CCCCCCCCCCCCCCCCCCOP(=O)([O-])OC1CC[N+](C)(C)CC1 [PERIFOSINE] | 5.3 | – | – | – | – | – | –
CCCCCCCCCCCCCCCCCCCCCC[C@@]1(C(=O)OCC)CCC[C@@H]1OP(=O)([O-])OCC[N+](C)(C)C (racemic) | 19.1 | 7.6 | 11.4 | 17.8 | – | – | –
CCCCCCCCCCCCCCCCOP(=O)([O-])OCC[N+](C)(C)C [MILTEFOSINE] | 9.6 | – | – | – | – | – | –
CCCCCCCCCCCCCCCCCCOCC(COP(=O)([O-])OCC[N+](C)(C)C)OC (configuration not stated) [EDELFOSINE] | 3.5 | 9.3 | 12.8 | 7.4 | – | – | –
CCCCCCCCCCCCCCCCCCCC[C@@]1(C(=O)OCC)CCC[C@H]1OP(=O)([O-])OCC[N+](C)(C)C (racemic) | 7 | 9.7 | 11.1 | 13.6 | – | – | –
CCCCCCCCCCCCCCCCCCCCCC[C@@]1(C(=O)OCC)CCC[C@H]1OP(=O)([O-])OCC[N+](C)(C)C (racemic) | 5.5 | 16.8 | 10.4 | 6.9 | – | – | –
